Reference: BigSolDB 2.1

CC(=O)Oc1ccccc1C(=O)Nc1ncc([N+](=O)[O-])s1
solubility (mole fraction)
Conditions	278.15 K	283.15 K	288.15 K	293.15 K	298.15 K	303.15 K	308.15 K	313.15 K	318.15 K	323.15 K
in DMF	0.0665	0.0716	0.077	0.0825	0.0882	0.0934	0.0992	0.106	0.112	0.118
in NMP	0.0891	0.093	0.0964	0.1	0.104	0.107	0.112	0.116	0.119	0.123
in isopropanol	0.000205	0.000239	0.000277	0.000319	0.000367	0.000419	0.000476	0.000542	0.000607	0.000684
in water	1.26e-07	1.66e-07	2.23e-07	2.93e-07	3.81e-07	4.98e-07	6.34e-07	8.11e-07	9.9e-07	1.24e-06
